We go through three compounds from EPA's ToxRefDB 2.

One may read the NOAEL as the highest tested level that showed no adverse finding. As a reminder, the LOAEL is the lowest dose or exposure tested at which an adverse effect was seen.

For data set [1], the system named is dog. To be noted: Chronic toxicity, beagle, Oral, Feed, dose end: 12 month, group: systemic.
Data set [2] has as its system mouse. To be noted: Carcinogenicity, cd1, Oral, Feed, dose end: 78 week, group: systemic.
Data set [3] has as its system rat. To be noted: Subchronic oral toxicity in rodents, sprague dawley, Feed, dose end: 13 week, group: systemic.
The test system of data set [4] is rat. Conditions: Combined chronic toxicity/carcinogenicity, other, Oral, Feed, dose end: 24 month, group: systemic.
For data set [5], the system named is rat. To be noted: Multigenerational reproductive toxicity study, sprague dawley, Oral, Feed, dose end: 2 generation.
For data set [6], the system named is mouse. Conditions: Subchronic oral toxicity in rodents, b6c3f1, Gavage/Intubation, dose end: 13 week, group: systemic.
Data set [7] concerns rat. To be noted: Subchronic oral toxicity in rodents, fischer, Gavage/Intubation, dose end: 13 week, group: systemic.
The subject of data set [8] is rat. To be noted: Carcinogenicity, fischer, Oral, Gavage/Intubation, dose end: 103 week, group: systemic.
Data set [9] concerns rat. To be noted: Prenatal developmental toxicity study; sprague dawley; Dermal; Topical; dose end: 15 GD; group: maternal; systemic / in life observation / body weight / body weight gain + systemic / in life observation / clinical signs / [other].
Data set [10] has as its system rat. Conditions: Prenatal developmental toxicity study, long evans, Oral, Gavage/Intubation, dose end: 15 GD.
Data set [11] concerns rabbit. Conditions: Prenatal developmental toxicity study; new zealand white; Dermal; Topical; dose end: 18 GD; group: maternal; systemic / in life observation / clinical signs / [other].
Where [12] appears, read: systemic / pathology microscopic / liver / pigmentation.
The mark [13] stands for this setting: systemic / pathology microscopic / liver / pigmentation + systemic / pathology microscopic / liver / hypertrophy.
Where [14] appears, read: systemic / organ weight / liver / absolute + systemic / organ weight / liver / relative to body weight + systemic / pathology microscopic / ….
[15] abbreviates: systemic / pathology microscopic / kidney / mineralization.
The mark [16] stands for this setting: systemic / organ weight / liver / relative to body weight.
Where [17] appears, read: systemic / organ weight / liver / absolute.
Setting [18] is: group: offspring, systemic / in life observation / body weight / offspring (pup) weight.
Where [19] appears, read: group: parental, systemic / in life observation / body weight / body weight.
Setting [20] is: systemic / in life observation / mortality / mortality + systemic / pathology microscopic / kidney / degeneration + systemic / pathology ….
The mark [21] stands for this setting: systemic / in life observation / clinical signs / defecation (diarrhea) + systemic / in life observation / clinical signs / lethargy + ….
The mark [22] stands for this setting: systemic / pathology microscopic / kidney / hyperplasia + systemic / pathology microscopic / kidney / nephropathy.
Setting [23] is: systemic / pathology microscopic / kidney / hyperplasia + systemic / pathology microscopic / kidney / nephropathy + systemic / in life ….
Setting [24] is: group: developmental, developmental / developmental malformation / bone / irregular ossification + developmental / developmental malformation / general / runts + ….
The mark [25] stands for this setting: group: developmental, developmental / developmental malformation / bone / irregular ossification + developmental / developmental malformation / kidney / ….
[26] abbreviates: group: maternal, systemic / in life observation / clinical signs / [other] + systemic / in life observation / clinical signs / hyperactivity + reproductive….

Where only a bound is given, the exact number is not on record here.

Turning to `CCCCC(CC)CN1C(=O)C2C3C=CC(C3)C2C1=O` (stereo not given) [MGK-264], the NEL in [1] (setting [12]) was 7.5 mg/kg/day; in data set [2] (setting [15]), less than 49.5 mg/kg/day; in [3] (setting [16]), less than 140 mg/kg/day; in data set [4] (setting [17]), less than 50 mg/kg/day; in data set [5] (setting [18]) it was less than 61 mg/kg/day; in data set [5] (setting [19]), less than 61 mg/kg/day. In addition, the NOAEL in data set [1] (setting [12]) is 7.5 mg/kg/day; in data set [2] (setting [14]), 49.5 mg/kg/day; in [3] (systemic / organ weight / liver / absolute + systemic / organ weight / liver / relative to body weight + systemic / clinical chemistry / …) it was 130 mg/kg/day; in [4] (systemic / pathology microscopic / liver / hypertrophy + systemic / pathology microscopic / liver / proliferation + systemic / in life …), 50 mg/kg/day; in data set [5] (setting [18]), less than 61 mg/kg/day. The LEL in data set [1] (setting [13]) was 33.7 mg/kg/day; in data set [2] (setting [15]), 49.5 mg/kg/day; in data set [3] (setting [16]), 140 mg/kg/day; in [4] (setting [17]), 50 mg/kg/day; in [5] (setting [18]), 61 mg/kg/day; in [5] (setting [19]), 61 mg/kg/day. The LOAEL in data set [1] (setting [13]) worked out at 33.7 mg/kg/day; in data set [2] (setting [14]) it was 396 mg/kg/day; in data set [3] (systemic / organ weight / liver / absolute + systemic / organ weight / liver / relative to body weight), 260 mg/kg/day; in [4] (systemic / pathology microscopic / liver / hypertrophy + systemic / pathology microscopic / liver / proliferation + systemic / organ weight…) it was 150 mg/kg/day; in data set [5] (setting [18]), 61 mg/kg/day.
Consider `Nc1cc([N+](=O)[O-])ccc1O` [2-Amino-4-nitrophenol], for which the LEL in [6] (systemic / in life observation / mortality / mortality) stood at 500 mg/kg/day; in data set [7] (setting [17]), 250 mg/kg/day; in data set [8] (setting [23]) it was 125 mg/kg/day. Moreover, the LOAEL in data set [6] (setting [20]) is more than 1000 mg/kg/day; in data set [7] (setting [21]) it was more than 1000 mg/kg/day; in [8] (setting [22]), 125 mg/kg/day. The values for the NEL in [6] (setting [20]), in data set [7] (setting [21]) and in data set [8] (setting [23]) were 250 mg/kg/day, 125 mg/kg/day and less than 125 mg/kg/day, respectively. The NOAEL in data set [6] (setting [20]) is not below 1000 mg/kg/day; in data set [7] (setting [21]), not below 1000 mg/kg/day; in data set [8] (setting [22]), less than 125 mg/kg/day.
Turning to `NCCO` [Ethanolamine], the LEL in data set [9] worked out at 225 mg/kg/day; in data set [10] (setting [25]), 50 mg/kg/day; in data set [10] (setting [26]) it was 500 mg/kg/day; in data set [11] it was 75 mg/kg/day. For the same compound, the LOAEL in [9] was more than 225 mg/kg/day; in data set [10] (setting [24]), more than 500 mg/kg/day; in data set [10] (setting [26]), more than 500 mg/kg/day; in [11] it was more than 75 mg/kg/day. Moreover, the NEL is 75 mg/kg/day in [9]; less than 50 mg/kg/day in data set [10] (setting [25]); 300 mg/kg/day in [10] (group: maternal, systemic / in life observation / clinical signs / [other] + systemic / in life observation / clinical signs / hyperactivity); 25 mg/kg/day in [11]. Moreover, the no-observed-adverse-effect level (NOAEL) in [9] was not below 225 mg/kg/day; in [10] (setting [24]) it was not below 500 mg/kg/day; in data set [10] (setting [26]), not below 500 mg/kg/day; in [11] it was not below 75 mg/kg/day.
